Results on one substance are retold here after patent EP0498680A1, “New beta-amino-alpha-hydroxycarboxylic acids and their use” (Sankyo Company Limited, priority 1991, dated 1992).

For the assay, the system named is HIV. Briefly: Inhibition of HIV proliferation in CEM cells. In kind it is cell-based. The settings on record: 1 µM (0.6 µg/ml) of the test compound, 1 week. The method, then:
CEM cells were inoculated in growth medium as defined in a) above, to a density of 2 x 10⁴ cells/ml. The inoculum was then seeded with a similar volume of serial 1 : 3 dilutions of the viral stock [a filtered preparation of the 48-hour culture supernatant of Molt4/HTLVIIIB cells prepared as described in Test Example 3 a) above]. The seeded inoculum was then cultured at 37°C under a 5% carbon dioxide atmosphere in the presence of 1 µM of the test compound (compound no. 14). After 1 week, the culture was spun down and the supernatant was collected. HIV antigen in the supernatant was determined as described in b) above.

For “(2S,3S)-[3-(N-3′-Hydroxyquinoxaline-2′-carbonyl-L-asparaginyl)amino-2-hydroxy-4-phenylbutyryl]-L-proline t-butyl ester [Compound No. 14]”, the “spread of HIV (HIV antigen in the supernatant)” value is reported as “sufficient to block the spread of HIV almost completely”.
